These are literature values, as cited in paper PMC11187573, “Identification of SARS-CoV-2 Mpro inhibitors through deep reinforcement learning for de novo drug design and computational chemistry approaches” (RSC Medicinal Chemistry, 2024).

Structures are written as SMILES.

Broadly, the IC50 is the concentration that gives 50% inhibition.

The subject of this data set is Mpro. As to conditions: ML dataset, Origin COVID_Moonshot; ref COVID Moonshot; cited from earlier work.
Regarding `CS(=O)(=O)c1ccc(N2CCNCC2)cc1`, the IC50 was 91.6 µM.
Consider `O=C(Cc1cccc(Cl)c1)Nc1cnccc1-c1ccccc1`, for which the IC50 was 33 µM.
`Cc1ccncc1NC(=O)Cc1cccc(F)c1`: the IC50 is 95.8 µM.
In the case of `Nc1cncc2c1CCCN2C(=O)Cc1cccc(Cl)c1`, the IC50 is 43.4 µM.
Turning to `Cc1ccncc1NC(=O)CN1C(=O)COc2ccc(Cl)cc21`, the IC50 was 49.4 µM.
As for `O=C(c1cc(=O)[nH]c2ccccc12)N1CCN(c2ccccc2F)CC1`, the IC50 was 24 µM.
On to `O=C(Nc1cncc2c1CNCC2)C1CCOc2ccc(Cl)cc21` (stereo not drawn), for which the IC50 is 6.16 µM.
Regarding `Cc1ccncc1NC(=O)C1CCOc2ccc(Cl)cc21` (stereo not drawn), the IC50 was 16 µM.
In the case of `CCCCOc1ccc(Cl)cc1CC(=O)Nc1cnccc1C`, the IC50 is 20.2 µM.
In the case of `Cn1c(=O)[nH]c2cncc(NC(=O)C3CCOc4ccc(Cl)cc43)c21` (stereo not drawn), the IC50 is 20.7 µM.
As to `Cc1ccncc1NC(=O)CN1CCC(C)CC1`, the concentration for half-maximal inhibition (IC50) is 49.2 µM.
As for `Cc1ccncc1CC(=O)Nc1cccc(Cl)c1`, the IC50 is 28.1 µM.
Turning to `COc1ccccc1OCCNC(=O)c1cc(=O)[nH]c2cccc(C)c12`, the half-inhibitory concentration (IC50) is 6.61 µM.
With `O=C(c1cc(=O)[nH]c2ccccc12)N1CCN(c2cccc(Cl)c2)C(=O)C1`, the IC50 was 12.7 µM.
Take `Cc1ccncc1N1CCN(c2cccc(Cl)c2)C1=O`: the half-inhibitory concentration (IC50) was 90.3 µM.
As to `O=C(Cc1cccc(Cl)c1)Nn1cnc2ccccc21`, the IC50 is 6.28 µM.
Regarding `Cc1ccncc1NC(=O)Cc1cccc(Br)c1`, the IC50 is 18.3 µM.
In the case of `CCCC(C(=O)Nc1cnccc1C)c1cccc(Cl)c1` (stereo not drawn), the IC50 was 11.4 µM.
With `O=C(Nc1cccnc1)N(CCC1CCCCC1)c1cccc(Cl)c1`, the IC50 was 3.18 µM.
As to `Cc1ccncc1NC(=O)Cc1cc(Cl)cc(NC2CCCC2O)c1` (stereo not drawn), the IC50 was 29.3 µM.
Turning to `Cc1ccncc1NC(=O)Cc1cc(Cl)cc(NC2CC2C(F)(F)F)c1` (stereo not drawn), the IC50 is 22.5 µM.
In the case of `O=C(Cc1cccc(Cl)c1)Nc1cncc2c1CCC2`, the IC50 was 4.91 µM.
For `Cc1ccncc1NC(=O)CC(C)C(C)C` (stereo not drawn), the IC50 was 99 µM.
In the case of `COc1ccccc1OCCNC(=O)c1cc(=O)[nH]c2ccccc12`, the IC50 was 5.35 µM.
Regarding `O=C(Cc1cc(Cl)cc2c1OCC2)Nc1cncc2ccccc12`, the IC50 was 0.97 µM.
In the case of `O=C(Cc1cccc(Cl)c1)Nn1nnc2ccccc21`, the IC50 was 18.4 µM.
Turning to `COc1cc(Cl)cc(CC(=O)Nc2cnccc2C)c1`, the IC50 is 40.2 µM.
For `Cc1ccncc1NC(=O)Cc1cc(Cl)cc(-c2ccc(C)c(F)c2F)c1`, the IC50 is 44.1 µM.
Take `O=C(Cc1cccc(Cl)c1)Nc1cncc2nc[nH]c12`: the IC50 was 10.6 µM.
Turning to `O=C(Cc1cccc(Cl)c1)Nc1cnc2ccccn12`, the IC50 was 8.03 µM.
With `Cn1cncc1NC(=O)Cc1cccc(Cl)c1`, the IC50 is 96.4 µM.
For `O=C(Cc1cncnc1)Nc1cc(F)cc(OC2CC(=O)N2)c1` (stereo not drawn), the IC50 is 24.9 µM.
Regarding `O=C(Cc1cccnc1)Nc1cccc(OC2CC(=O)N2)c1` (stereo not drawn), the IC50 is 88.3 µM.
Take `Cc1cc(NC(=O)Cc2cncnc2)cc(OC2CC(=O)N2)c1` (stereo not drawn): the IC50 is 34.3 µM.
Turning to `CC(=O)NCc1cc(Cl)cc(CC(=O)Nc2cnccc2C)c1`, the IC50 is 48.4 µM.
With `Cc1ccncc1NC(=O)Cc1cc(Cl)cc(OC2CC(=O)N2)c1` (stereo not drawn), the IC50 is 2.28 µM.
On to `Cc1ccncc1NC(=O)C(C)c1cc(Cl)cc(OC2CC(=O)N2)c1` (stereo not drawn), for which the IC50 was 82.6 µM.
`Cc1ccncc1NC(=O)Nc1cccc(Cl)c1`: the IC50 is 55.1 µM.
Regarding `Cc1ccncc1NC(=O)C(C)c1cccc(Cl)c1` (stereo not drawn), the IC50 was 19.6 µM.
Consider `Cc1c(N)cncc1NC(=O)Cc1cccc(C#N)c1`, for which the IC50 is 24.1 µM.
For `Cc1ccncc1NC(=O)Cc1cccc(C#N)c1`, the IC50 was 52.6 µM.
For `Cc1ccncc1NC(=O)C(C)c1cccc(C#N)c1` (stereo not drawn), the IC50 was 50.1 µM.
With `Cc1c(N)cncc1NC(=O)Cc1cccc(Cl)c1`, the IC50 is 6.21 µM.
With `Cc1ccncc1NC(=O)Cc1cccc(Cl)c1`, the IC50 was 19.2 µM.
`O=C(Nc1cncc2ccccc12)C1COc2ccc(Cl)cc21` (racemic): the IC50 is 1.86 µM.
